Assays:
CDK4/CyclinD1 = biological target: T1, CDK4/CyclinD1 (Homo sapiens, UniProt P11802); assay: CDK4/CyclinD1 kinase activity test (LANCE Ultra TR-FRET); type: biochemical; conditions: 350 μM ATP, 25° C., 120 minutes; read-out: Enzyme activity data (IC50) CDK4/cyclinD1
T1 construct: purchased Invitrogen
Protocol: Experimental materials: CDK4/CyclinD1 kinase was purchased from Invitrogen, reaction substrate LANCE Ultra ULight™-4E-BP-1 (Thr37146) Peptide and EU-ANTI-P-4EBP1 (THR37/46) were purchased from PerkinElmer. Nivo Multilabel Analyzer (PerkinElmer).
(§1) Experimental method: preparation of kinase buffer: The components of the buffer include: 50 mM of hydroxyethylpiperazine […] solution with pH 7.5, 1 mM of EDTA, 10 mM of magnesium chloride, 0.01% lauryl polyoxyethylene ether (Brij-35), 2 mM of enzyme dithiothreitol, kinase buffer dilution enzyme, substrate LANCE Ultra ULight™-4E-BP-1 (Thr37146) Peptide, adenosine triphosphate and inhibitor. […] The reaction system was continued at 25° C. for 120 minutes. After the reaction was complete, a mixture of 5 μL of EDTA and 2× LANCE™ Detection Buffer (1:1) was added to each well, and reacted at 25° C. for 5 minutes, after the reaction was complete, 5 μL of LANCE Ultra Eu-anti-P-4E-BP1(Thr37MS) (4 nM) was added to each well, and reacted at 25° C. for 60 minutes, the reaction signal was detected by Nivo instrument according to the principle of time-resolved fluorescence resonance energy transfer.
(§2) Table 1 provides the enzymatic inhibitory activities of the compounds of the present invention on CDK2/CyclinA2, CDK2/CyclinE1, CDK4/CyclinD1, CDK6/CyclinD1, CDK9/CyclinT1.

CDK6/CyclinD1 = biological target: T2, CDK6/CyclinD1 (Homo sapiens, UniProt Q00534); assay: CDK6/CyclinD1 kinase activity test (LANCE Ultra TR-FRET); type: biochemical; conditions: 250 μM ATP, 25° C., 120 minutes; read-out: Enzyme activity data (IC50) CDK6/cyclinD1
T2 construct: purchased Carna
T2 sequence (Q00534 whole entry): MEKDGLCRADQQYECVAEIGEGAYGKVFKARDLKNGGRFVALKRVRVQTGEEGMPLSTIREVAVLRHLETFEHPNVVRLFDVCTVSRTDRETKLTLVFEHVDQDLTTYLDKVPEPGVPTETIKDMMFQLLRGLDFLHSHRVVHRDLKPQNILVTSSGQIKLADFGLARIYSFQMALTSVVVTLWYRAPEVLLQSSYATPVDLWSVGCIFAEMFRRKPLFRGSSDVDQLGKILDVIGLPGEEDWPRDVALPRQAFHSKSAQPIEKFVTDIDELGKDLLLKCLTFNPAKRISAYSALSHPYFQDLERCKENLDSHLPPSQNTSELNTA
T2 sequence (P24385 whole entry partner): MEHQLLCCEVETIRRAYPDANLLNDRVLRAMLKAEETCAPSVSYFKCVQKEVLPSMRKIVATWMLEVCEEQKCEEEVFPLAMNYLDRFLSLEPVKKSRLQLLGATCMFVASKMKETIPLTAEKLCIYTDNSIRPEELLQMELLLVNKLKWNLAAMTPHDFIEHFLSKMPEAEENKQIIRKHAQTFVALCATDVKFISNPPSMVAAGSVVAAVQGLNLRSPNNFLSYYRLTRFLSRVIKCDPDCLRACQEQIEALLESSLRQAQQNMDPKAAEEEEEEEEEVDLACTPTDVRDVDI
Protocol: Experimental materials: CDK6/CyclinD1 kinase was purchased from Carna, reaction substrate LANCE Ultra ULight™-4E-BP-1 (Thr37146) Peptide and EU-ANTI-P-4EBP1 (THR37/46) were purchased from PerkinElmer. Nivo Multilabel Analyzer (PerkinElmer).
as §1, §2

CDK2/CyclinA2 = biological target: T3, CDK2/CyclinA2 (Homo sapiens, UniProt P24941); assay: CDK2/CyclinA2 kinase activity test (ADP-Glo); type: biochemical; conditions: 50 μM ATP, 25° C., 60 minutes; read-out: Enzyme activity data (IC50) CDK2/cyclinA
T3 construct: purchased Promega
Protocol: Experimental materials: CDK2/CyclinA2 kinase detection kit was purchased from Promega. Nivo Multilabel Analyzer (PerkinElmer).
Experimental method: Kinase buffer dilution enzyme in the kit, substrate, adenosine triphosphate and inhibitor were used. The compounds to be tested were diluted 5-fold to the 8th concentration with a row gun, that is, from 50 μM to 0.65 nM, the concentration of DMSO was 5%, and a double-replicate well experiment was set up. 1 μL of each concentration gradient of inhibitor, 2 μL of CDK2/CyclinA2 enzyme (1.6 ng), and 2 μL of a mixture of substrate and ATP (50 μM of adenosine triphosphate, 0.1 μg/μL of substrate) were added to the microplate, and at this time, the final concentration gradient of compound was diluted from 10 μM to 0.13 nM. The reaction system was placed at 25° C. and reacted for 60 minutes. After the reaction was complete, 5 μL of ADP-Glo reagent was added to each well, and the reaction was continued at 25° C. for 40 minutes. At the end of the reaction, 10 μL of kinase detection reagent was added to each well. After the reaction was continued at 25° C. for 30 minutes, the chemiluminescence was read by a multi-label analyzer with an integration time of 0.5 seconds.
Using the equation (Sample−Min)/(Max−Min)×100% to convert the original data into inhibition rate, the IC50 value can be obtained by curve fitting with four parameters (obtained by the mode of log(inhibitor) vs. response—Variable slope in GraphPad Prism). Table 1 provides the enzymatic inhibitory activities of the compounds of the present invention on CDK2/CyclinA2, CDK2/CyclinE1, CDK4/CyclinD1, CDK6/CyclinD1, CDK9/CyclinT1.

CDK9/CyclinT1 = biological target: T4, CDK9/CyclinT1 (Homo sapiens, UniProt P50750); assay: CDK9/CyclinT1 kinase activity assay (ADP-Glo); type: biochemical; conditions: 100 μM ATP, 25° C., 60 minutes; read-out: Enzyme activity data (IC50) CDK9/CyclinT1
T4 construct: purchased Carna
T4 sequence (P50750 whole entry): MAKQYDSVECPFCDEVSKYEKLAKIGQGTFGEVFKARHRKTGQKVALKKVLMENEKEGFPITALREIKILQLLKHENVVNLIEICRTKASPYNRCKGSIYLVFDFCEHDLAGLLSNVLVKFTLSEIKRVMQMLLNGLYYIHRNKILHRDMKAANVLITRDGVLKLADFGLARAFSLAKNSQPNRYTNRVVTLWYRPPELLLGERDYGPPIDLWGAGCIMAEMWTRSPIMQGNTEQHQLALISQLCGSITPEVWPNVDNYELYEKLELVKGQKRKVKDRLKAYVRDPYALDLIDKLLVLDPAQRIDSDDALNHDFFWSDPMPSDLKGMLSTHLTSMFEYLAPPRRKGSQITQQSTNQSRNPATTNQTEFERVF
T4 sequence (O60563 whole entry partner): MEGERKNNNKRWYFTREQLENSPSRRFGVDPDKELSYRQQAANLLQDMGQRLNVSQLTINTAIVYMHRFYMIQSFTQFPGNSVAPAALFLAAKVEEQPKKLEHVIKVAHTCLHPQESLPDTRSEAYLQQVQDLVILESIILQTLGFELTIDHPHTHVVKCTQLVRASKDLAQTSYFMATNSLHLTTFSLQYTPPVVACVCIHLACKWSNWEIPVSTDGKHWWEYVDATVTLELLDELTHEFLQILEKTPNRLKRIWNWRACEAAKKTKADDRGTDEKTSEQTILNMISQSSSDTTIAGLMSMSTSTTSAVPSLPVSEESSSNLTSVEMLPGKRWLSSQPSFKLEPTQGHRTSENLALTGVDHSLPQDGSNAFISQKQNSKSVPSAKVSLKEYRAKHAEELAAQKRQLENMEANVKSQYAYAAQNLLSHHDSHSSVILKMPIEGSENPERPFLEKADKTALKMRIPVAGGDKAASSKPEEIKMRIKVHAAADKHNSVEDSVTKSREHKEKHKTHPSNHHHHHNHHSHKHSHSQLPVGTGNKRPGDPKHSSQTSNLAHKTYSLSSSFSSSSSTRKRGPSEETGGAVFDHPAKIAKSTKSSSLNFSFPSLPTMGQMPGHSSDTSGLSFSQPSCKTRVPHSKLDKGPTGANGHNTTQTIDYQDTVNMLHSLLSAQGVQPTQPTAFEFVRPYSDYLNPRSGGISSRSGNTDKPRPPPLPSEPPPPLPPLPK
Protocol: Experimental materials: CDK9/CyclinT1 kinase was purchased from Carna, the ADP-Glo detection kit was purchased from Promega, the PKDTide substrate and kinase reaction buffer were purchased from Signalchem. Nivo Multilabel Analyzer (PerkinElmer).
Experimental method: Kinase buffer dilution enzyme in the kit, substrate, adenosine triphosphate and inhibitor were used. […] The reaction system was placed at 25° C. and reacted for 60 minutes. After the reaction was complete, 5 μL of ADP-Glo reagent was added to each well, and the reaction was continued at 25° C. for 40 minutes. At the end of the reaction, 10 μL of kinase detection reagent was added to each well. After the reaction was continued at 25° C. for 30 minutes, the chemiluminescence was read by a multi-label analyzer with an integration time of 0.5 seconds.
as §2

HCT116 cells = assay: HCT116 cell activity test (CellTiter-Glo); type: cell-based; conditions: Homo sapiens, HCT-116, 96 h, 4 days, read-out: Antiproliferative activity (IC50) HCT 116
Protocol: (§3) Experimental materials: McCoy' 5a medium, fetal bovine serum, and penicillin/streptomycin antibiotics were purchased from Vicente. CellTiter-Glo (chemiluminescence detection reagent for cell viability) reagent was purchased from Promega. The HCT116 cell line was purchased from Cobioer Biosciences Co., Ltd. Nivo Multilabel Analyzer (PerkinElmer).
Experimental method: HCT116 cells were seeded in a white 96-well plate, 80 μL of cell suspension per well, which contained 1000 HCT116 cells. The cell plate was incubated overnight in a carbon dioxide incubator. The compounds to be tested were diluted 5-fold to the 9th concentration with a row gun, that is, from 2 mM to 5.12 nM, and a double-replicate well experiment was set up. 78 μL of medium was added to the middle plate, and then transferred 2 μL per well of the gradient diluted compound to the middle plate according to the corresponding position, mixed well and transferred 20 μL per well to the cell plate. […] Another cell plate was prepared, and the signal value was read as the maximum value (Max value in the equation below) on the day of drug addition to participate in data analysis. 25 μL of chemiluminescence detection reagent for cell viability was added to each well of the cell plate, and incubated at room temperature for 10 minutes to stabilize the luminescence signal. A multi-label analyzer was used for reading. […]

HCC1806 cells = assay: HCC1806 cell activity test (CyQUANT); type: cell-based; conditions: Homo sapiens, 168 h, 7 days, read-out: Antiproliferative activity (IC50) HCC1806
Protocol: Experimental materials: RPMI-1640 medium, fetal bovine serum, penicillin/streptomycin antibiotics were purchased from Vicente. CyQUANT Cell Proliferation Assays (Cell proliferation assay kit) reagents were purchased from ThermoFisher. The HCC1806 cell line was purchased from Cobioer Biosciences Co., Ltd. Nivo Multilabel Analyzer (PerkinElmer).
Experimental method: HCC1806 cells were seeded in a white 96-well plate, 80 μL of cell suspension per well, which contained 3000 HCC1806 cells. The cell plate was incubated overnight in a carbon dioxide incubator. The compounds to be tested were diluted 5-fold to the 9th concentration with a row gun, that is, from 10 mM to 25.6 nM, and a double-replicate well experiment was set up. 78 μL of medium was added to the middle plate, and then transferred 2 μL per well of the gradient diluted compound to the middle plate according to the corresponding position, mixed well and transferred 20 μL per well to the cell plate. […] After reaching the incubation time, the cell supernatant was removed, and the cell plate was placed in a −80° C. refrigerator for 1 hour, after which 100 μL of Cyquant reagent was added to each well, and a multi-label analyzer was used for reading. Another cell plate was prepared, and the signal value was read as the maximum value (Max value in the equation below) on the day of drug addition to participate in data analysis. […]

MDA-MB-468 cells = assay: MDA-MB-468 cell activity test (CellTiter-Glo); type: cell-based; conditions: Homo sapiens, 168 h; MDA-MB-468 cells (Rb-negative), 7 days; read-out: Antiproliferative activity (IC50) MDA-MB-468
Protocol: as §3, with “L15” for “McCoy' 5a”, “serum,” for “serum, and”, “MDA-MB-468” for “HCT116”
Experimental method: MDA-MB-468 cells were seeded in a white 96-well plate, 80 μL of cell suspension per well, which contained 1000 MDA-MB-468 cells. The cell plate was incubated overnight in a carbon dioxide incubator. The compounds to be tested were diluted 5-fold to the 9th concentration with a row gun, that is, from 10 mM to 25.6 nM, and a double-replicate well experiment was set up. 78 μL of medium was added to the middle plate, and then transferred 2 μL per well of the gradient diluted compound to the middle plate according to the corresponding position, mixed well and transferred 20 μL per well to the cell plate. The concentration of compound transferred to the cell plate ranged from 50 μM to 0.128 nM. The cell plate was incubated in a carbon dioxide incubator for 7 days. Another cell plate was prepared, and the signal value was read as the maximum value (Max value in the equation below) on the day of drug addition to participate in data analysis. 25 μL of chemiluminescence detection reagent for cell viability was added to each well of the cell plate, and incubated at room temperature for 10 minutes to stabilize the luminescence signal. A multi-label analyzer was used for reading.
Data analysis: Using the equation (Sample−Min)/(Max−Min)×100% to convert the original data into inhibition rate, the IC50 value can be obtained by curve fitting with four parameters (obtained by the mode of log(inhibitor) vs. response—Variable slope in GraphPad Prism).

T1 sequence (P11802 whole entry): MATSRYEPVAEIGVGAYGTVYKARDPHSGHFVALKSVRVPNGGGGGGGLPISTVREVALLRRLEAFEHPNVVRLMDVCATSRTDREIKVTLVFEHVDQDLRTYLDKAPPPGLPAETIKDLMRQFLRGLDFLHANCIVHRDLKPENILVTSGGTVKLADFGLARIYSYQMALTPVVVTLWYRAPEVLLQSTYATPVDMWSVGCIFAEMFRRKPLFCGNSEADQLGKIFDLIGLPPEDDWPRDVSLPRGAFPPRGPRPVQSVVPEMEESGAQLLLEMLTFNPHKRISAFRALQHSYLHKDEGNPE
T1 sequence (P24385 whole entry partner): as the sequence (P24385 whole entry partner) above

| SMILES | IC50 (CDK4/CyclinD1) | IC50 (CDK6/CyclinD1) | IC50 (CDK2/CyclinA2) | IC50 (CDK9/CyclinT1) | IC50 (HCT116 cells) | IC50 (HCC1806 cells) | IC50 (MDA-MB-468 cells) |
| --- | --- | --- | --- | --- | --- | --- | --- |
| COCCS(=O)(=O)N1CCC(Nc2ncc3c(n2)N([C@@H]2CCC[C@@]2(C)O)C(=O)CC3)CC1 [Compound 6] | 38.1 nM | 5.26 nM | 1.13 nM |  |  |  |  |
| C[C@@]1(O)CCC[C@H]1N1C(=O)CCc2cnc(NC3CCN(S(=O)(=O)C4CNC4)CC3)nc21 [Compound 7] | 3.99 nM | 1.52 nM | 1.4 nM |  |  |  |  |
| CCN1CC(S(=O)(=O)N2CCC(Nc3ncc4c(n3)N([C@@H]3CCC[C@@]3(C)O)C(=O)CC4)CC2)C1 [Compound 8] | 14.9 nM | 3.4 nM | 1.78 nM |  |  |  |  |
| C[C@@]1(O)CCC[C@H]1N1C(=O)CCc2cnc(NC3CCN(S(=O)(=O)C4CC4)CC3)nc21 [Compound 3] | 23.6 nM | 4.74 nM | 1.18 nM |  |  |  |  |
| CCS(=O)(=O)N1CCC(Nc2ncc3c(n2)N([C@@H]2CCC[C@@]2(C)O)C(=O)CC3)CC1 [Compound 4] | 37.5 nM | 5.42 nM | 1.32 nM |  |  |  |  |
| CC(C)S(=O)(=O)N1CCC(Nc2ncc3c(n2)N([C@@H]2CCC[C@@]2(C)O)C(=O)CC3)CC1 [Compound 5] | 46.9 nM | 8.95 nM | 1.74 nM |  |  |  |  |

Further lines, results first:

| IC50 (CDK4/CyclinD1) | IC50 (CDK6/CyclinD1) | IC50 (CDK2/CyclinA2) | IC50 (CDK9/CyclinT1) | IC50 (HCT116 cells) | IC50 (HCC1806 cells) | IC50 (MDA-MB-468 cells) | SMILES |
| --- | --- | --- | --- | --- | --- | --- | --- |
| 9.09 nM | 2.65 nM | 1.52 nM |  |  |  |  | CN1CC(S(=O)(=O)N2CCC(Nc3ncc4c(n3)N([C@@H]3CCC[C@@]3(C)O)C(=O)CC4)CC2)C1 [Compound 10] |
|  |  |  | 17.2 nM | 140 nM | 458 nM | 120 nM | C[C@@]1(O)CCC[C@H]1n1c(=O)c(C(F)F)cc2cnc(NC3CCN(S(C)(=O)=O)CC3)nc21 [PF-06873600, reference compound] |
| 15.7 nM | 3.69 nM | 1.4 nM |  |  |  |  | CC(C)N1CC(S(=O)(=O)N2CCC(Nc3ncc4c(n3)N([C@@H]3CCC[C@@]3(C)O)C(=O)CC4)CC2)C1 [Compound 9] |

Reference: patent publication US12679837B2, “Aminopyrimidine compound as CDK2/4/6 triple inhibitor” (CISEN PHARMACEUTICAL CO., LTD, priority 2019, dated 2026)
